This note sets out measurements from ChEMBL document CHEMBL6134857, “Novel Spiro-Barbiturates Can Reverse the Action of General Anesthetics on the GABAAR” (J Med Chem, 2025).

Molecules are shown by their SMILES.

Holding throughout (assay type): cell membranes
Experiment [1] addresses T1, GABA-A receptor; alpha-1/beta-3/gamma-2 (Homo sapiens) (UniProt P14867+P18507+P28472). The experiment can be described thus: Inhibition of [3H]flunitrazepam binding to full length human N-terminal flag-tagged alpha1-beta3-C-terminal 1D4-tagged gamma2 GABAA receptor extracted from Tetracycline-resistant HEK293 cell membrane assessed as reduction in [3H]flunitrazepam binding at 300 uM incubated for 30 mins relative to control.

For experiment [2], the target named is T2, GABA-A receptor; alpha-1/beta-3/gamma-2 (Homo sapiens, UniProt P14867+P18507+P28472).
T2 sequence (P14867 whole entry): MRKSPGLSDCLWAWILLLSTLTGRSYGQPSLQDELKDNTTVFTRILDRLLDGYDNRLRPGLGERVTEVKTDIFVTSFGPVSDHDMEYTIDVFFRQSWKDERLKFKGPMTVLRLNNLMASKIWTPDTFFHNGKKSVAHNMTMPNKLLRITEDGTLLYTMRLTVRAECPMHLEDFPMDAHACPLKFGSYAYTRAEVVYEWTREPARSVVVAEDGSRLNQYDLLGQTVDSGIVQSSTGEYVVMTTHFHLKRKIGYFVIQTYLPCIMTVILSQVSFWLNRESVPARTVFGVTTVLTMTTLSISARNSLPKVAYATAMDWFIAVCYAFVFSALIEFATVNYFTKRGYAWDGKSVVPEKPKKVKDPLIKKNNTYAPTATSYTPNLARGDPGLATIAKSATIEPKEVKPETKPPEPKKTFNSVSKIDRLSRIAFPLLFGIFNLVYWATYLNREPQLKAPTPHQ
T2 sequence (P18507 whole entry): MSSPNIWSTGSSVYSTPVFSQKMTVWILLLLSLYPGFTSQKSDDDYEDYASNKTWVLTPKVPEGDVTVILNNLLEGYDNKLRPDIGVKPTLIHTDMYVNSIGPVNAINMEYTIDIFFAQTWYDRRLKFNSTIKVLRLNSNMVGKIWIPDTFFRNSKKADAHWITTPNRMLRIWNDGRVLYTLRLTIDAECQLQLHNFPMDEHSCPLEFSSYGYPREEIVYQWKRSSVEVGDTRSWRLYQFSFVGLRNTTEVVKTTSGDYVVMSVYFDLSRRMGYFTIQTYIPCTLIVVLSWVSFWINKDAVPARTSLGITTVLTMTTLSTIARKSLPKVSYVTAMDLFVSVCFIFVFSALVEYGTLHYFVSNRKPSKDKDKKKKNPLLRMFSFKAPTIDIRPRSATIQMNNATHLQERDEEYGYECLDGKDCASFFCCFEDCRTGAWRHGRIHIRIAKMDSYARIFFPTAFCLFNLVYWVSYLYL
T2 sequence (P28472 whole entry): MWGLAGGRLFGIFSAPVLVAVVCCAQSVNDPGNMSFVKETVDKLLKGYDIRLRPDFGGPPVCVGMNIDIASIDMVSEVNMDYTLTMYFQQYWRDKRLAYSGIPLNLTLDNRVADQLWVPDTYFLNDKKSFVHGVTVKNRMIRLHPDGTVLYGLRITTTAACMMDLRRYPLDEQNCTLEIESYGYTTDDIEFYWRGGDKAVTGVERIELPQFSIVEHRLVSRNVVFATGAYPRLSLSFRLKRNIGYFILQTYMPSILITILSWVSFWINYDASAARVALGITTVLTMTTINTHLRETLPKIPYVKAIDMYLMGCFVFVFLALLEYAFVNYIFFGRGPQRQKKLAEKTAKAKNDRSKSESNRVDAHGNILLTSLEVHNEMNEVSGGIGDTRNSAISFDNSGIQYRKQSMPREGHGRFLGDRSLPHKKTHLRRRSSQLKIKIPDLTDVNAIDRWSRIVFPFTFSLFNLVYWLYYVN
The experiment can be described thus: Inhibition of R-mTFD-MPAB-induced [3H]muscimol binding to full length human N-terminal flag-tagged alpha1-beta3-C-terminal 1D4-tagged gamma2 GABAA receptor extracted from Tetracycline-resistant HEK293 cell membrane incubated for 30 mins.

Experiment [3] deals with T1, GABA-A receptor; alpha-1/beta-3/gamma-2 (Homo sapiens). The experiment can be described thus: Effect on [3H]muscimol binding to full length human N-terminal flag-tagged alpha1-beta3-C-terminal 1D4-tagged gamma2 GABAA receptor extracted from Tetracycline-resistant HEK293 cell membrane assessed as fold change in [3H]muscimol binding at 300 uM incubated for 30 mins. The conditions noted are these: filed as modulator.

Experiment [4] shares this target. The experiment can be described thus: Inhibition of R-mTFD-MPAB-induced [3H]muscimol binding to full length human N-terminal flag-tagged alpha1-beta3-C-terminal 1D4-tagged gamma2 GABAA receptor extracted from Tetracycline-resistant HEK293 cell membrane assessed as fold change at 300 uM incubated for 30 mins. As to conditions: filed as modulator.
Experiment [5] has the same target. As to the kind of experiment: Inhibition of R-mTFD-MPAB-induced [3H]muscimol binding to full length human N-terminal flag-tagged alpha1-beta3-C-terminal 1D4-tagged gamma2 GABAA receptor extracted from Tetracycline-resistant HEK293 cell membrane at 300 uM incubated for 30 mins relative to control.
The target is the same in experiment [6]. The experiment can be described thus: Effect on [3H]muscimol binding to full length human N-terminal flag-tagged alpha1-beta3-C-terminal 1D4-tagged gamma2 GABAA receptor extracted from Tetracycline-resistant HEK293 cell membrane assessed as [3H]muscimol binding at 300 uM incubated for 30 mins relative to control.
The target is the same in experiment [7]. The experiment can be described thus: Positive allosteric modulation on R-mTFD-MPAB-induced [3H]muscimol binding to full length human N-terminal flag-tagged alpha1-beta3-C-terminal 1D4-tagged gamma2 GABAA receptor extracted from Tetracycline-resistant HEK293 cell membrane at 300 uM incubated for 30 mins relative to control.
In experiment [8] the target is T2, GABA-A receptor; alpha-1/beta-3/gamma-2. The experiment can be described thus: Positive allosteric modulation on [3H]muscimol binding to full length human N-terminal flag-tagged alpha1-beta3-C-terminal 1D4-tagged gamma2 GABAA receptor extracted from Tetracycline-resistant HEK293 cell membrane assessed as [3H]muscimol binding incubated for 30 mins.
In experiment [9] the target is T1, GABA-A receptor; alpha-1/beta-3/gamma-2 (Homo sapiens). As to the kind of experiment: Modulation of [3H]flunitrazepam binding to full length human N-terminal flag-tagged alpha1-beta3-C-terminal 1D4-tagged gamma2 GABAA receptor extracted from Tetracycline-resistant HEK293 cell membrane assessed as fold change in [3H]flunitrazepam binding at 300 uM incubated for 30 mins. The conditions noted are these: filed as modulator.

Experiment [10] has as its target T2, GABA-A receptor; alpha-1/beta-3/gamma-2. As to the kind of experiment: Mixed effect on [3H]muscimol binding to full length human N-terminal flag-tagged alpha1-beta3-C-terminal 1D4-tagged gamma2 GABAA receptor extracted from Tetracycline-resistant HEK293 cell membrane assessed as [3H]muscimol binding incubated for 30 mins.
The target is the same in experiment [11]. As to the kind of experiment: Mixed-type inhibition of R-mTFD-MPAB-induced [3H]muscimol binding to full length human N-terminal flag-tagged alpha1-beta3-C-terminal 1D4-tagged gamma2 GABAA receptor extracted from Tetracycline-resistant HEK293 cell membrane incubated for 30 mins.

The term inhibition denotes how much of the control response was suppressed. In general, IC50 refers to the midpoint of a concentration-inhibition curve. A low value points to higher potency. As to `O=C1NC(=O)C2(CCc3ccccc32)C(=O)N1`, the inhibition in experiment [1] was 12%. The same molecule showed a 50% inhibitory concentration (IC50) in [2] of 18 µM. Also, the fold change (FC) in experiment [3] was -0.02; in experiment [4], 0.53.

In general, EC50 refers to the concentration giving half of the maximal effect. Take `CC(C)c1ccc2c(c1)C1(CC2)C(=O)NC(=O)NC1=O`: the inhibition in experiment [5] was more than 40%. For the same molecule, the Activity in experiment [6] was less than 10%; in experiment [7], 20%. Besides, the fold change (FC) was determined as 0.26 in [3] and 0.9 in experiment [4]. In addition, the EC50 in experiment [8] turned out to be 22 µM.

In the case of `O=C1NC(=O)C2(CC(O)c3ccccc32)C(=O)N1` (stereo in doubt; 1t-2), the IC50 in experiment [2] was determined as 113 µM.

Turning to `CC(C)c1ccc2c(c1)C1(CC2)C(=O)NC(=O)N(C)C1=O` (stereo in doubt; 5h-1) [listing 1 of 2 here], the inhibition in experiment [1] was found to be 12%. The fold change (FC) in [9] is 0.84; in experiment [3], 0.8; in [4], 0.73. This molecule also displayed an Activity in [7] (filed as positive allosteric modulator) of 80%.

With `CC(C)c1ccc2c(c1)C1(CC2)C(=O)NC(=O)N(C)C1=O` (stereo in doubt; 5h-1) [listing 2 of 2 here], the concentration giving a half-maximal response (EC50) in experiment [8] was found to be 32 µM.

For `CC(C)c1ccc2c(c1)C1(CC2)C(=O)NC(=O)N(C)C1=O` (stereo in doubt; 5h-2), the EC50 in experiment [8] turned out to be 38 µM.

In [2], `CN=C1NC(=O)C2(CCc3ccccc32)C(=O)N1` (configuration not stated) displayed an IC50 of 99 µM. Further, the fold change (FC) is -0.09 in experiment [3] and 0.35 in [4].

With `Cc1ccc2c(c1)C1(CC2)C(=O)NC(=O)N(C)C1=O` (stereo in doubt; 4h-2), the EC50 in experiment [10] came out at 32 µM. In experiment [11], this molecule came in with a concentration for half-maximal inhibition (IC50) of 38 µM.

On to `O=C1NC(=O)C2(CCCCc3ccccc32)C(=O)N1`, for which the inhibition in experiment [1] came out at 12%. In addition, the fold change (FC) in experiment [9] came to 0.43; in experiment [3], 0.22; in experiment [4] it was 0.98.
